In patent publication US20260374773A1, “MULTI-CYCLIC IRAK AND FLT3 INHIBITING COMPOUNDS AND USES THEREOF” (CHILDREN'S HOSPITAL MEDICAL CENTER, priority 2022, published 2026):

Tests used:
MOLM14 D835Y cells = experiment: MOLM14 D835Y cell viability (Cell Titer Glo); assay type: cell-based; settings: Homo sapiens
Method: Both cell lines have activated FLT3 receptors, each of which carry additional resistance mutations in the kinase domain (D835Y and F691L, respectively).
(§1) MOLM14 D835Y and MOLM14 F691L cells were grown in RPMI-1640 media supplemented with 20% fetal bovine serum (FBS). For viability/cytotoxicity assessments, cells were seeded into 1536-well white polystyrene tissue culture-treated Greiner plates using a Multidrop Combi dispenser (ThermoFisher), in final volume 5 μL of growth media per well, at a density of 1000 cells per well. After cell addition, 23 nL of test compound were transferred into individual wells (22 doses tested for each test compound, with a 1:2 dilution series starting at 10 μM) via a 1536 pin-tool. Bortezomib (final concentration 2.3 μM) was used as a positive control for cell cytotoxicity. Plates were incubated for 48 hours at standard incubator conditions covered by a stainless steel gasketed lid to prevent evaporation. 48 hours post compound addition, 3 μL of Cell Titer Glo (Promega) were added to each well and plates were incubated at room temperature for 15 minutes with the stainless-steel lid in place. Luminescence readings were taken using a Viewlux imager (PerkinElmer) with a 2 second exposure time per plate.
This cell line has activated FLT3 receptors, which carries an additional resistance mutation in the kinase domain at D835Y.
as §1, with “D835Y” for “D835Y and MOLM14 F691L”, “mL” for “μL”, “mM)” for “μM)”

IRAK4 = molecular target: T1, IRAK4 (Homo sapiens, UniProt Q9NWZ3); experiment: RBC HotSpot kinase inhibition assay, IRAK4; assay type: biochemical; settings: isolated kinase, 33P-ATP, 2 h
T1 sequence (Q9NWZ3 1-460): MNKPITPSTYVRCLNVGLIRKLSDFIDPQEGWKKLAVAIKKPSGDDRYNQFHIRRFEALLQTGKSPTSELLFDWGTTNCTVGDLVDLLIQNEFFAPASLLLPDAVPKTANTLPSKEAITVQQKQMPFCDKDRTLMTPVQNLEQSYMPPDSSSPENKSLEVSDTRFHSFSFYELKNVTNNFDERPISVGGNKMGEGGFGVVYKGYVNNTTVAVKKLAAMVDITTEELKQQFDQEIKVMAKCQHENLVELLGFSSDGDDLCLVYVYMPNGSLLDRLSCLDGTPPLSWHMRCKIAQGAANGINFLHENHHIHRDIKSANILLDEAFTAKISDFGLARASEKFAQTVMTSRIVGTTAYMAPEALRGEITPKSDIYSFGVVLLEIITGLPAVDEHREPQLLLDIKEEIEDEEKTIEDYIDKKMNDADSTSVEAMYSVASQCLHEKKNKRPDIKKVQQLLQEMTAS
Description: (§2) This assay uses the isolated kinase enzyme. This assay is very useful for determining competition of the inhibitor for ATP and/or substrates and for measuring the kinetics of enzyme inhibition. […] Unlike kinase binding assays that measure competition for ATP, the HotSpot Kinase Assay is a functional assay that measures catalytic activity; as such it measures relative functional potency regardless of the mechanism of enzyme inhibition. This assay uses the form of the various enzymes that are easiest to express, which may not necessarily be the form of the enzyme that exist in the cell. (Sometimes the carboxy terminus has been truncated to aid in expression, or, if it is a receptor kinase, the enzyme itself is isolated from the other parts of the receptor that are involved in regulating kinase activity.)
The reagent used was as follows: Base Reaction buffer; 20 mM Hepes (pH 7.5), 10 mM MgCl2, 1 mM EGTA, 0.01% Brij35, 0.02 mg/ml BSA, 0.1 mM Na3VO4, 2 mM DTT, 1% DMSO. Required cofactors were added individually to each kinase reaction.
(§3) The reaction procedure was as follows: • 1) Substrates were prepared in freshly prepared Reaction Buffer. • 2) Any required cofactors were delivered to the substrate solution above. • 3) Kinase was delivered into the substrate solution and gently mixed. • 4) Compounds were delivered in 100% DMSO into the kinase reaction mixture by Acoustic technology (Echo550; nanoliter range), followed by incubation for 20 min at room temp. • 5) ^33P-ATP was delivered into the reaction mixture to initiate the reaction. • 6) The mixture was incubated for 2 hours at room temperature. • 7) Kinase activity was detected by P81 filter-binding method.
as §2, with “Although not wishing to be limited by theory, it is believed that sometimes” for “(Sometimes”, “activity.” for “activity.)”
The reagent used was as follows: Base Reaction buffer; 20 mM Hepes (pH 7.5), 10 mM MgCl2, 1 mM EGTA, 0.01% Brij35, 0.02 mg/ml BSA, 0.1 mM Na3 VO4, 2 mM DTT, 1% DMSO.
Required cofactors were added individually to each kinase reaction.
as §3, with “33P-ATP” for “^33P-ATP”

IC50 (MOLM14 D835Y cells; MOLM-14, Table 16, 48 h) | IC50 (IRAK4; Table 11) | IC50 (MOLM14 D835Y cells; MOLM-14, Table 22, 48 h) | IC50 (IRAK4; Table 17) | Structure (SMILES)
32 nM | < 0.5 nM | – | – | COc1cn2ncc(-c3nc(N[C@H]4CNC[C@@H]4F)c(F)cc3F)c2nc1C(C)(C)O [Compound 12, 2-(3-(3,5-difluoro-6-(((3S,4S)-4-fluoropyrrolidin-3-yl)amino)pyridin-2-yl)-6-methoxypyrazolo[1,5-a]pyrimidin-5-yl)propan-2-ol]
2 nM | < 0.5 nM | – | – | COc1cn2ncc(-c3nc(N[C@H]4CNCC[C@@H]4F)c(F)cc3F)c2nc1C1CC1 [Compound 22, 6-(5-cyclopropyl-6-methoxypyrazolo[1,5-a]pyrimidin-3-yl)-3,5-difluoro-N-((3S,4S)-4-fluoropiperidin-3-yl)pyridin-2-amine]
14 nM | 2 nM | – | – | COc1cn2ncc(-c3nc(N[C@H]4CNCC[C@@H]4F)c(F)cc3F)c2nc1C(C)(C)O [Compound 13, 2-(3-(3,5-difluoro-6-(((3S,4S)-4-fluoropiperidin-3-yl)amino)pyridin-2-yl)-6-methoxypyrazolo[1,5-a]pyrimidin-5-yl)propan-2-ol]
– | – | 1 nM | 0.6 nM | COc1cn2ncc(-c3nc(N[C@@H]4CCCNC4)ncc3F)c2nc1C1CC1 [Compound 14a, (R)-4-(5-cyclopropyl-6-methoxypyrazolo[1,5-a]pyrimidin-3-yl)-5-fluoro-N-(piperidin-3-yl)pyrimidin-2-amine]
– | < 0.5 nM | – | – | COc1cn2ncc(-c3nc(N[C@H]4CNCC[C@@H]4F)c(C#N)cc3F)c2nc1C(C)(C)O [Compound 10, 5-fluoro-2-(((3S,4S)-4-fluoropiperidin-3-yl)amino)-6-(5-(2-hydroxypropan-2-yl)-6-methoxypyrazolo[1,5-a]pyrimidin-3-yl)nicotinonitrile]
13 nM | 1 nM | – | – | COc1cn2ncc(-c3nc(N[C@@H]4CCCNC4)c(F)cc3F)c2nc1C(C)(C)O [Compound 11, (R)-2-(3-(3,5-difluoro-6-(piperidin-3-ylamino)pyridin-2-yl)-6-methoxypyrazolo[1,5-a]pyrimidin-5-yl)propan-2-ol]
– | – | 2 nM | 0.7 nM | COc1cn2ncc(-c3nc(N[C@H]4CNCC[C@@H]4F)ncc3F)c2nc1C1CC1 [Compound 15a, 4-(5-cyclopropyl-6-methoxypyrazolo[1,5-a]pyrimidin-3-yl)-5-fluoro-N-((3S,4S)-4-fluoropiperidin-3-yl)pyrimidin-2-amine]
– | – | 11 nM | 2 nM | COc1cn2ncc(-c3nc(N[C@@H]4CCCNC4)ncc3F)c2nc1C(C)(C)O [Compound 4a, (R)-2-(3-(5-fluoro-2-(piperidin-3-ylamino)pyrimidin-4-yl)-6-methoxypyrazolo[1,5-a]pyrimidin-5-yl)propan-2-ol]
58 nM | 2 nM | – | – | COc1cn2ncc(-c3cccc(N[C@H]4CNC[C@@H]4F)n3)c2nc1C1CC1 [Compound 19, 6-(5-cyclopropyl-6-methoxypyrazolo[1,5-a]pyrimidin-3-yl)-N-((3S,4S)-4-fluoropyrrolidin-3-yl)pyridin-2-amine]
– | – | 29 nM | 1 nM | COc1cn2ncc(-c3cncc(N[C@@H]4CCCNC4)n3)c2nc1C1CC1 [Compound 11a, (R)-6-(5-cyclopropyl-6-methoxypyrazolo[1,5-a]pyrimidin-3-yl)-N-(piperidin-3-yl)pyrazin-2-amine]
2 nM | < 0.5 nM | – | – | COc1cn2ncc(-c3nc(N[C@@H]4CCCNC4)ccc3F)c2nc1C1CC1 [Compound 2, (R)-6-(5-cyclopropyl-6-methoxypyrazolo[1,5-a]pyrimidin-3-yl)-5-fluoro-N-(piperidin-3-yl)pyridin-2-amine]
– | – | 26 nM | 1 nM | COc1cn2ncc(-c3ccnc(N[C@H]4CNC[C@@H]4F)n3)c2nc1C1CC1 [Compound 8a, 4-(5-cyclopropyl-6-methoxypyrazolo[1,5-a]pyrimidin-3-yl)-N-((3S,4S)-4-fluoropyrrolidin-3-yl)pyrimidin-2-amine]
– | < 0.5 nM | – | – | COc1cn2ncc(-c3nc(N[C@H]4CNCC[C@@H]4F)c(C#N)cc3F)c2nc1C1CC1 [Compound 7, 6-(5-cyclopropyl-6-methoxypyrazolo[1,5-a]pyrimidin-3-yl)-5-fluoro-2-(((3S,4S)-4-fluoropiperidin-3-yl)amino)nicotinonitrile]
– | – | 12 nM | 0.8 nM | COc1cn2ncc(-c3cncc(N[C@H]4CNCC[C@@H]4F)n3)c2nc1C1CC1 [Compound 12a, 6-(5-cyclopropyl-6-methoxypyrazolo[1,5-a]pyrimidin-3-yl)-N-((3S,4S)-4-fluoropiperidin-3-yl)pyrazin-2-amine]
– | – | 5 nM | 0.7 nM | COc1cn2ncc(-c3nc(N[C@H]4CNCC[C@@H]4F)ncc3F)c2nc1C(C)(C)O [Compound 6a, 2-(3-(5-fluoro-2-(((3S,4S)-4-fluoropiperidin-3-yl)amino)pyrimidin-4-yl)-6-methoxypyrazolo[1,5-a]pyrimidin-5-yl)propan-2-ol]
46 nM | 2 nM | – | – | COc1cn2ncc(-c3cccc(N[C@H]4CNCC[C@@H]4F)n3)c2nc1C1CC1 [Compound 21, 6-(5-cyclopropyl-6-methoxypyrazolo[1,5-a]pyrimidin-3-yl)-N-((3S,4S)-4-fluoropiperidin-3-yl)pyridin-2-amine]
41 nM | 5 nM | – | – | COc1cn2ncc(-c3cccc(N[C@@H]4CCCNC4)n3)c2nc1C1CC1 [Compound 20, (R)-6-(5-cyclopropyl-6-methoxypyrazolo[1,5-a]pyrimidin-3-yl)-N-(piperidin-3-yl)pyridin-2-amine]
2 nM | < 0.5 nM | – | – | COc1cn2ncc(-c3nc(N[C@H]4CNC[C@@H]4F)c(F)cc3F)c2nc1C1CC1 [Compound 24, 6-(5-cyclopropyl-6-methoxypyrazolo[1,5-a]pyrimidin-3-yl)-3,5-difluoro-N-((3S,4S)-4-fluoropyrrolidin-3-yl)pyridin-2-amine]
